Bridge positions count the residues as written; N and C are the ends. Peptide text beside a SMILES is read from it.
Assays:
[1] = target: Sodium channel protein type 9 subunit alpha (Homo sapiens, UniProt Q15858); assay: Inhibition of human NaV1.7 at -140 mV holding potential by whole-cell patch clamp assay
[2] = target: Sodium channel protein type 5 subunit alpha (Homo sapiens, UniProt Q14524); assay: Inhibition of human NaV1.5 at -140 mV holding potential by whole-cell patch clamp assay
Chain of Sodium channel protein type 5 subunit alpha (Q14524 whole entry): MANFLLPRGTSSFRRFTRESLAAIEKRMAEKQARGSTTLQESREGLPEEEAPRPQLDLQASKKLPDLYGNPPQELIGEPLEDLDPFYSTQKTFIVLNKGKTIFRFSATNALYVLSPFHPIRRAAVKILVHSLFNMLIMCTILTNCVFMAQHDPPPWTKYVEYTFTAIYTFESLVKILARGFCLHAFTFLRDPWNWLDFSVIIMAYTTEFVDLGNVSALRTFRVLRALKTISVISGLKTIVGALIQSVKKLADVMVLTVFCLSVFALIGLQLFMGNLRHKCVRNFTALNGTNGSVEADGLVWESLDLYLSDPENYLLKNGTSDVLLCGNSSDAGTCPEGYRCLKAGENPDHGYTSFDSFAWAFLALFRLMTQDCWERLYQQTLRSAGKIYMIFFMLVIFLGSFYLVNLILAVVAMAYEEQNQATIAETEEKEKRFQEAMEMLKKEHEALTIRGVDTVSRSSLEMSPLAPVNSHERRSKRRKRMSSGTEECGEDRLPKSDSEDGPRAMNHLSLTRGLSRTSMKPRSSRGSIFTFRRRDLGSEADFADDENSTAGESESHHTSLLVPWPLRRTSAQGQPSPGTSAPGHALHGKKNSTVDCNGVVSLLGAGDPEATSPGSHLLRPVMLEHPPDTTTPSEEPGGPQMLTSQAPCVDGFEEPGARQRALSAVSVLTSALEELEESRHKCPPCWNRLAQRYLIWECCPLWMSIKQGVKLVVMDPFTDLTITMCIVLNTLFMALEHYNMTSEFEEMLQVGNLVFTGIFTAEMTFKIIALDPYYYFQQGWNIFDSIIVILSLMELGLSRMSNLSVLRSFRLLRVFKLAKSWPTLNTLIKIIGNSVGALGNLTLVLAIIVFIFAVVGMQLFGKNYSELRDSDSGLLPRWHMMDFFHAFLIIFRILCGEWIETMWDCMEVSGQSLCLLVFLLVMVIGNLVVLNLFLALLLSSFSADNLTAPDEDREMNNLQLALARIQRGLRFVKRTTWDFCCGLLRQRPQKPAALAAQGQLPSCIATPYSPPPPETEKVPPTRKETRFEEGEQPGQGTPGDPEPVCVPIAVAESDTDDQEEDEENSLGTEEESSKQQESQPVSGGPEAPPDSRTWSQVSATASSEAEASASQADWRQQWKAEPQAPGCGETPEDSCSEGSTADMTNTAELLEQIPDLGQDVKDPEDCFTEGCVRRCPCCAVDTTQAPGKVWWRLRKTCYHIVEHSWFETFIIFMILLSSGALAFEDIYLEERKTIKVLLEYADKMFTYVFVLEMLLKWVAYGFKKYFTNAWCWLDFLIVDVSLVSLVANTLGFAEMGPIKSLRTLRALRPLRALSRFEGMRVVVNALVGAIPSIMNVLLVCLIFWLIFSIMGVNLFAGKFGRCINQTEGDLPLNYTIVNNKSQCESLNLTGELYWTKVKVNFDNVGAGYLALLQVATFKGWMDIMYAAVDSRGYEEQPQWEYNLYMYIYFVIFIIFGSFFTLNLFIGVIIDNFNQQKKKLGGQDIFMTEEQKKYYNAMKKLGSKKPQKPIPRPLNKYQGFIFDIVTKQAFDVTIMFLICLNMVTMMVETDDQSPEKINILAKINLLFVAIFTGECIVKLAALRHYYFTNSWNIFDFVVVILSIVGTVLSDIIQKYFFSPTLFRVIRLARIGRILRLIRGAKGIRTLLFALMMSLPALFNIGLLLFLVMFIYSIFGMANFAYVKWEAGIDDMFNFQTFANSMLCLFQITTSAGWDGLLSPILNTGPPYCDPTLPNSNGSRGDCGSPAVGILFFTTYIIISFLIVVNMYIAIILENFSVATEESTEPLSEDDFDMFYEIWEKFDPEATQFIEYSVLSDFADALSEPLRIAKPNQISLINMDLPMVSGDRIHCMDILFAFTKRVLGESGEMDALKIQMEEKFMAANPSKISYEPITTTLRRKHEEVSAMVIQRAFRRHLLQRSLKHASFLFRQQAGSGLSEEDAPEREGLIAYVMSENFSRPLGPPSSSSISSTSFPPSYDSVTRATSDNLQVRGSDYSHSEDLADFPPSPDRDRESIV

Chain of Sodium channel protein type 9 subunit alpha (Q15858 whole entry): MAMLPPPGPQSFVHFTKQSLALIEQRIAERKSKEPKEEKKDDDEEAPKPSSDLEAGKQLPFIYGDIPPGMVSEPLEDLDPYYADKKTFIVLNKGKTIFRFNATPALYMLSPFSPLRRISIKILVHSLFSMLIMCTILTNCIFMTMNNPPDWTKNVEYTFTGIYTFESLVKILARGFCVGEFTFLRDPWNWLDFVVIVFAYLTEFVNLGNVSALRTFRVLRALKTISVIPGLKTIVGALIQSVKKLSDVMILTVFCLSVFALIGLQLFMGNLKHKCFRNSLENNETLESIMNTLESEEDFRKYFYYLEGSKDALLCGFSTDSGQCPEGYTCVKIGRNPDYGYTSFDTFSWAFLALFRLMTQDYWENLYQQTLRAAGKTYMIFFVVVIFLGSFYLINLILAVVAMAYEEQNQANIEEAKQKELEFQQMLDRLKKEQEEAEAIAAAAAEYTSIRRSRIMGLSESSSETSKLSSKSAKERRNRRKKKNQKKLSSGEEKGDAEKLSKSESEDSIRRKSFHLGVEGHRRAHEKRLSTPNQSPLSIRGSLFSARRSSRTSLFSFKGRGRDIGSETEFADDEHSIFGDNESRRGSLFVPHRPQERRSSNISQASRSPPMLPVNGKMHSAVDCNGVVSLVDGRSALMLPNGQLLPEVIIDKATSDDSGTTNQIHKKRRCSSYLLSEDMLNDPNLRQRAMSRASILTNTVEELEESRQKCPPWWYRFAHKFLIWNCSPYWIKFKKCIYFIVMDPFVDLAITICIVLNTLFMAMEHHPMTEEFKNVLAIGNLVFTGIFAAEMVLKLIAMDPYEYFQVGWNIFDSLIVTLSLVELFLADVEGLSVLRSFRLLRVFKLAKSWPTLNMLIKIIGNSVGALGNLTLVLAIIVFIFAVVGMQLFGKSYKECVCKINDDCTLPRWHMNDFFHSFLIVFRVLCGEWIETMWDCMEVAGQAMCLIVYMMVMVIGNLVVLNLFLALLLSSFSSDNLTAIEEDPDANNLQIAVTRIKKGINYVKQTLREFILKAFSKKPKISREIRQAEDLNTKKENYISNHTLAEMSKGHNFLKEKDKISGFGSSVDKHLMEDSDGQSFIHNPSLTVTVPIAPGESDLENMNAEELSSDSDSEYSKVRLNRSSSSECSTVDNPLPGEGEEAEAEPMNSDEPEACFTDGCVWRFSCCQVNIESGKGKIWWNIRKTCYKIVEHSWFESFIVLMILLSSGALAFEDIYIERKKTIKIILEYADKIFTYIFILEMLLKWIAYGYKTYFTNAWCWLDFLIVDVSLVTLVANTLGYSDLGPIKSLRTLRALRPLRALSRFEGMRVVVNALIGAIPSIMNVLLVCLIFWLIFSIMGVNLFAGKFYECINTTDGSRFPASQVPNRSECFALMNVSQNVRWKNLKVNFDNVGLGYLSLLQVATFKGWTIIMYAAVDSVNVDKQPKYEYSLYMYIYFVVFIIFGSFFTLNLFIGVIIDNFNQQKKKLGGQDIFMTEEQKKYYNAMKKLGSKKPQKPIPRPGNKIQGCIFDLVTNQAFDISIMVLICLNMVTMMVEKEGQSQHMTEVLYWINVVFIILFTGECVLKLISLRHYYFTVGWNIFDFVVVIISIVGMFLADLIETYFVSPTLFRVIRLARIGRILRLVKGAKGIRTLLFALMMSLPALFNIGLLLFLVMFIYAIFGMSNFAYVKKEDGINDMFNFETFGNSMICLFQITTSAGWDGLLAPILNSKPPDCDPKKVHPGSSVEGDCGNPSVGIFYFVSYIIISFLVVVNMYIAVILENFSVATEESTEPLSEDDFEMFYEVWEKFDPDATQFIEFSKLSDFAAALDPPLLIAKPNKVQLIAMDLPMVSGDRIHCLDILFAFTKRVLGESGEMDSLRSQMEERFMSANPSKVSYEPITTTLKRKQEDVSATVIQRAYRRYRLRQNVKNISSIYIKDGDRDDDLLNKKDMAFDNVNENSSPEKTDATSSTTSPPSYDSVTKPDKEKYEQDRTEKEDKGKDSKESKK

SMILES | IC50 [1] | IC50 [2]
CC[C@H](C)[C@@H]1NC(=O)[C@@H]2CSSC[C@@H]3NC(=O)[C@H](C(C)C)NC(=O)[C@H](CC(C)C)NC(=O)[C@H](CC(N)=O)NC(=O)[C@@H]4CCCN4C(=O)[C@H](CCCNC(=N)N)NC(=O)[C@H](CSSC[C@H](NC(=O)[C@@H](N)CC(=O)O)C(=O)N[C@@H](CC(C)C)C(=O)NCC(=O)N[C@@H](CC(C)C)C(=O)N[C@@H](CCSC)C(=O)N[C@@H](CCCNC(=N)N)C(=O)N[C@@H](CCCCN)C(=O)N2)NC(=O)[C@H](CSSC[C@@H](C(=O)N[C@@H](CCCCN)C(=O)N[C@@H](Cc2ccc(O)cc2)C(=O)N[C@H](C(=O)N[C@@H](Cc2ccccc2)C(N)=O)C(C)C)NC(=O)[C@H](Cc2c[nH]c4ccccc24)NC(=O)[C@H](CCCCN)NC(=O)[C@H](Cc2cnc[nH]2)NC(=O)[C@H]([C@@H](C)O)NC(=O)[C@H](CCCNC(=N)N)NC(=O)[C@H](CO)NC3=O)NC(=O)[C@H](CCCCN)NC(=O)[C@H](CC(=O)O)NC(=O)[C@H](CC(N)=O)NC(=O)[C@H](CC(=O)O)NC(=O)[C@@H]2CCCN2C1=O (H-DCLGLMRKCIPDNDKCCRPNLVCSRTHKWCKYVF-NH2; disulfide 2-17, 9-23, 16-30) | 5 nM | > 10000 nM
CC[C@H](C)[C@@H]1NC(=O)[C@@H]2CSSC[C@@H]3NC(=O)[C@H](C(C)C)NC(=O)[C@H](CC(C)C)NC(=O)[C@H](CC(N)=O)NC(=O)[C@@H]4CCCN4C(=O)[C@H](CCCNC(=N)N)NC(=O)[C@H](CSSC[C@H](NC(=O)[C@@H](N)CC(=O)O)C(=O)N[C@@H](CC(C)C)C(=O)NCC(=O)N(C)[C@@H](CC(C)C)C(=O)N[C@@H](CCSC)C(=O)N[C@@H](CCCNC(=N)N)C(=O)N[C@@H](CCCCN)C(=O)N2)NC(=O)[C@H](CSSC[C@@H](C(=O)N[C@@H](CCCCN)C(=O)N[C@@H](Cc2ccc(O)cc2)C(=O)N[C@H](C(=O)N[C@@H](Cc2ccccc2)C(N)=O)C(C)C)NC(=O)[C@H](Cc2c[nH]c4ccccc24)NC(=O)[C@H](CCCCN)NC(=O)[C@H](Cc2cnc[nH]2)NC(=O)[C@H]([C@@H](C)O)NC(=O)[C@H](CCCNC(=N)N)NC(=O)[C@H](CO)NC3=O)NC(=O)[C@H](CCCCN)NC(=O)[C@H](CC(=O)O)NC(=O)[C@H](CC(N)=O)NC(=O)[C@H](CC(=O)O)NC(=O)[C@@H]2CCCN2C1=O | 25 nM | > 10000 nM
CC[C@H](C)[C@@H]1NC(=O)[C@@H]2CSSC[C@@H]3NC(=O)[C@H](C(C)C)NC(=O)[C@H](CC(C)C)NC(=O)[C@H](CC(N)=O)NC(=O)[C@@H]4CCCN4C(=O)[C@H](CCCNC(=N)N)NC(=O)[C@H](CSSC[C@H](NC(=O)[C@@H](N)CC(=O)O)C(=O)N[C@@H](CC(C)C)C(=O)NCC(=O)N[C@@H](Cc4ccccc4)C(=O)N[C@@H](CCSC)C(=O)N[C@@H](CCCNC(=N)N)C(=O)N[C@@H](CCCCN)C(=O)N2)NC(=O)[C@H](CSSC[C@@H](C(=O)N[C@@H](CCCCN)C(=O)N[C@@H](Cc2ccc(O)cc2)C(=O)N[C@H](C(=O)N[C@@H](Cc2ccccc2)C(N)=O)C(C)C)NC(=O)[C@H](Cc2c[nH]c4ccccc24)NC(=O)[C@H](CCCCN)NC(=O)[C@H](Cc2cnc[nH]2)NC(=O)[C@H]([C@@H](C)O)NC(=O)[C@H](CCCNC(=N)N)NC(=O)[C@H](CO)NC3=O)NC(=O)[C@H](CCCCN)NC(=O)[C@H](CC(=O)O)NC(=O)[C@H](CC(N)=O)NC(=O)[C@H](CC(=O)O)NC(=O)[C@H](C)NC1=O (H-DCLGFMRKCIADNDKCCRPNLVCSRTHKWCKYVF-NH2; disulfide 2-17, 9-23, 16-30) | 170 nM | > 5000 nM
CC[C@H](C)[C@@H]1NC(=O)[C@@H]2CSSC[C@@H]3NC(=O)[C@H](C(C)C)NC(=O)[C@H](CC(C)C)NC(=O)[C@H](CC(N)=O)NC(=O)[C@@H]4CCCN4C(=O)[C@H](CCCNC(=N)N)NC(=O)[C@H](CSSC[C@H](NC(=O)[C@@H](N)CC(=O)O)C(=O)N[C@@H](CC(C)C)C(=O)NCC(=O)N[C@@H](C)C(=O)N[C@@H](Cc4ccccc4)C(=O)N[C@@H](CCCNC(=N)N)C(=O)N[C@@H](CCCCN)C(=O)N2)NC(=O)[C@H](CSSC[C@@H](C(=O)N[C@@H](CCCCN)C(=O)N[C@@H](Cc2ccc(O)cc2)C(=O)N[C@H](C(=O)N[C@@H](Cc2ccccc2)C(N)=O)C(C)C)NC(=O)[C@H](Cc2c[nH]c4ccccc24)NC(=O)[C@H](CCCNC(=N)N)NC(=O)[C@H](Cc2cnc[nH]2)NC(=O)[C@H](CC(C)C)NC(=O)[C@H](CCCNC(=N)N)NC(=O)[C@H](CO)NC3=O)NC(=O)[C@H](CCCCN)NC(=O)[C@H](CC(=O)O)NC(=O)[C@H](CC(N)=O)NC(=O)[C@H](CC(=O)O)NC(=O)[C@@H]2CCCN2C1=O (H-DCLGAFRKCIPDNDKCCRPNLVCSRLHRWCKYVF-NH2; disulfide 2-17, 9-23, 16-30) | 1.6 nM | > 10000 nM
CC[C@H](C)[C@@H]1NC(=O)[C@@H]2CSSC[C@@H]3NC(=O)[C@H](C(C)C)NC(=O)[C@H](CC(C)C)NC(=O)[C@H](CC(N)=O)NC(=O)[C@@H]4CCCN4C(=O)[C@H](CCCNC(=N)N)NC(=O)[C@H](CSSC[C@H](NC(=O)[C@@H](N)CC(=O)O)C(=O)N[C@@H](C)C(=O)NCC(=O)N[C@@H](Cc4ccccc4)C(=O)N[C@@H](CCSC)C(=O)N[C@@H](CCCNC(=N)N)C(=O)N[C@@H](CCCCN)C(=O)N2)NC(=O)[C@H](CSSC[C@@H](C(=O)N[C@@H](CCCCN)C(=O)N[C@@H](Cc2ccc(O)cc2)C(=O)N[C@H](C(=O)N[C@@H](Cc2ccccc2)C(N)=O)C(C)C)NC(=O)[C@H](Cc2c[nH]c4ccccc24)NC(=O)[C@H](CCCCN)NC(=O)[C@H](Cc2cnc[nH]2)NC(=O)[C@H]([C@@H](C)O)NC(=O)[C@H](CCCNC(=N)N)NC(=O)[C@H](CO)NC3=O)NC(=O)[C@H](CCCCN)NC(=O)[C@H](CC(=O)O)NC(=O)[C@H](CC(N)=O)NC(=O)[C@H](CC(=O)O)NC(=O)[C@@H]2CCCN2C1=O (H-DCAGFMRKCIPDNDKCCRPNLVCSRTHKWCKYVF-NH2; disulfide 2-17, 9-23, 16-30) | 430 nM | > 5000 nM
CC[C@H](C)[C@@H]1NC(=O)[C@@H]2CSSC[C@@H]3NC(=O)[C@H](C(C)C)NC(=O)[C@H](CC(C)C)NC(=O)[C@H](CC(N)=O)NC(=O)[C@@H]4CCCN4C(=O)[C@H](CCCNC(=N)N)NC(=O)[C@H](CSSC[C@H](NC(=O)[C@@H](N)CC(=O)O)C(=O)N[C@@H](CC(C)C)C(=O)NCC(=O)N[C@@H](Cc4ccccc4)C(=O)N[C@@H](CCSC)C(=O)N[C@@H](CCCNC(=N)N)C(=O)N[C@@H](CCCCN)C(=O)N2)NC(=O)[C@H](CSSC[C@@H](C(=O)N[C@@H](CCCCN)C(=O)N[C@@H](Cc2ccc(O)cc2)C(=O)N[C@H](C(=O)N[C@@H](Cc2ccccc2)C(N)=O)C(C)C)NC(=O)[C@H](C)NC(=O)[C@H](CCCCN)NC(=O)[C@H](Cc2cnc[nH]2)NC(=O)[C@H]([C@@H](C)O)NC(=O)[C@H](CCCNC(=N)N)NC(=O)[C@H](CO)NC3=O)NC(=O)[C@H](CCCCN)NC(=O)[C@H](CC(=O)O)NC(=O)[C@H](CC(N)=O)NC(=O)[C@H](CC(=O)O)NC(=O)[C@@H]2CCCN2C1=O (H-DCLGFMRKCIPDNDKCCRPNLVCSRTHKACKYVF-NH2; disulfide 2-17, 9-23, 16-30) | > 5000 nM | > 5000 nM
CC[C@H](C)[C@@H]1NC(=O)[C@@H]2CSSC[C@@H]3NC(=O)[C@H](C(C)C)NC(=O)[C@H](CC(C)C)NC(=O)[C@H](CC(N)=O)NC(=O)[C@@H]4CCCN4C(=O)[C@H](CCCNC(=N)N)NC(=O)[C@H](CSSC[C@H](NC(=O)[C@@H](N)CC(=O)O)C(=O)N[C@@H](CC(C)C)C(=O)NCC(=O)N[C@@H](Cc4ccccc4)C(=O)N[C@@H](CCSC)C(=O)N[C@@H](CCCNC(=N)N)C(=O)N[C@@H](CCCCN)C(=O)N2)NC(=O)[C@H](CSSC[C@@H](C(=O)N[C@@H](CCCCN)C(=O)N[C@@H](Cc2ccc(O)cc2)C(=O)N[C@H](C(=O)N[C@@H](Cc2ccccc2)C(N)=O)C(C)C)NC(=O)[C@H](Cc2c[nH]c4ccccc24)NC(=O)[C@H](CCCCN)NC(=O)[C@H](Cc2cnc[nH]2)NC(=O)[C@H](C)NC(=O)[C@H](CCCNC(=N)N)NC(=O)[C@H](CO)NC3=O)NC(=O)[C@H](CCCCN)NC(=O)[C@H](CC(=O)O)NC(=O)[C@H](CC(N)=O)NC(=O)[C@H](CC(=O)O)NC(=O)[C@@H]2CCCN2C1=O (H-DCLGFMRKCIPDNDKCCRPNLVCSRAHKWCKYVF-NH2; disulfide 2-17, 9-23, 16-30) | 260 nM | > 5000 nM
CC[C@H](C)[C@@H]1NC(=O)[C@@H]2CSSC[C@@H]3NC(=O)[C@H](C(C)C)NC(=O)[C@H](CC(C)C)NC(=O)[C@H](CC(N)=O)NC(=O)[C@@H]4CCCN4C(=O)[C@H](CCCNC(=N)N)NC(=O)[C@H](CSSC[C@H](NC(=O)[C@@H](N)CC(=O)O)C(=O)N[C@@H](CC(C)C)C(=O)NCC(=O)N[C@@H](Cc4ccccc4)C(=O)N[C@@H](CCSC)C(=O)N[C@@H](CCCNC(=N)N)C(=O)N[C@@H](CCCCN)C(=O)N2)NC(=O)[C@H](CSSC[C@@H](C(=O)N[C@@H](CCCCN)C(=O)N[C@@H](Cc2ccc(O)cc2)C(=O)N[C@H](C(=O)N[C@@H](C)C(N)=O)C(C)C)NC(=O)[C@H](Cc2c[nH]c4ccccc24)NC(=O)[C@H](CCCCN)NC(=O)[C@H](Cc2cnc[nH]2)NC(=O)[C@H]([C@@H](C)O)NC(=O)[C@H](CCCNC(=N)N)NC(=O)[C@H](CO)NC3=O)NC(=O)[C@H](CCCCN)NC(=O)[C@H](CC(=O)O)NC(=O)[C@H](CC(N)=O)NC(=O)[C@H](CC(=O)O)NC(=O)[C@@H]2CCCN2C1=O (H-DCLGFMRKCIPDNDKCCRPNLVCSRTHKWCKYVA-NH2; disulfide 2-17, 9-23, 16-30) | 1200 nM | > 5000 nM

From ChEMBL document CHEMBL3414527, “Engineering potent and selective analogues of GpTx-1, a tarantula venom peptide antagonist of the Na(V)1.7 sodium channel” (J Med Chem, 2015)
